According to patent publication US9732084B2, “Pyrrolobenzodiazepines used to treat proliferative diseases” (priority 2010, dated 2017):

What was measured:
Format in all cases: cell-based
786-O [1] = test: Free drug in vitro cytotoxicity (resazurin); details: Homo sapiens, 786-0, 786-O cells, 96 hours
Protocol: (§1) Cells as detailed below were collected and plated in 96 well black-sided plates at a density of 10,000 cells/well in 150 μL of medium. Serial dilutions of the test article (50 μL) were added, and incubation was carried out for 92 hours at 37° C. After addition of test compound, cultures were incubated to 96 hours at 37° C. Resazurin (0.25 mM, 50 μL, Sigma, St. Louis, Mo.) in medium was added and incubation was continued for 4 h. The plates were read on a Fusion HT microplate reader (Packard, Meriden, Conn.) using an excitation wavelength of 525 nm and an emission wavelength of 590 nm. Data from all assays were reduced using GraphPad Prism Version 4 for Windows (GraphPad Software, San Diego, Calif.). The IC50 concentrations compared to untreated control cells were determined using a 4 parameter curve fits.

Caki-1 [2] = test: Free drug in vitro cytotoxicity (resazurin); details: Homo sapiens, Caki-1 cells, 96 hours
Protocol: as §1

MCF-7 [3] = test: Free drug in vitro cytotoxicity (resazurin); details: Homo sapiens, MCF7, MCF-7 cells, 96 hours
Protocol: as §1

TF1a = test: Free drug in vitro cytotoxicity (resazurin); details: TF-1a, TF1a cells, 96 hours
Protocol: as §1

786-O [4] = test: Alternative cell assay (Cell Titer Glo cytotoxicity); details: Homo sapiens, 786-0, 786-O cells, 48 hours
Protocol: (§2) Cells were plated in 150 μL growth media per well into black-sided clear-bottom 96-well plates (Costar, Corning) and allowed to settle for 1 hour in the biological cabinet before placing in the incubator at 37° C., 5% CO2. The following day, 4× concentration of drug stocks were prepared, and then titrated as 10-fold serial dilutions producing 8-point dose curves and added at 50 μl per well in duplicate. Cells were then incubated for 48 hours at 37° C., 5% CO2. Cytotoxicity was measure by incubating with 100 μL Cell Titer Glo (Promega) solution for 1 hour, and then luminescence was measured on a Fusion HT plate reader (Perkin Elmer). Data was processed with Excel (Microsoft) and GraphPad (Prism) to produce dose response curves and IC50 values were generated and data collected.

BxPC-3 = test: as above; details: Homo sapiens, BxPC-3 cells, 48 hours
Protocol: as §2

Caki-1 [5] = test: as above; details: Homo sapiens, Caki-1 cells, 48 hours
Protocol: as §2

HEL = test: as above; details: Homo sapiens, HEL cells, 48 hours
Protocol: as §2

HL-60 = test: as above; details: Homo sapiens, HL-60 cells, 48 hours
Protocol: as §2

MCF-7 [6] = test: as above; details: Homo sapiens, MCF7, MCF-7 cells, 48 hours
Protocol: as §2

SMILES: COc1cc2c(cc1OCCCOc1cc3c(cc1OC)C(=O)N1C=C(c4ccc(N)cc4)C[C@H]1C=N3)N=C[C@@H]1CC(C)=CN1C2=O [Compound 11, (S)-2-(4-aminophenyl)-7-methoxy-8-(3-((S)-7-methoxy-2-methyl-5-oxo-5,11a-dihydro-1H-pyrrolo[2,1-c][1,4]benzodiazepine-8-yloxy)propoxy)-1H-pyrrolo[2,1-c][1,4]benzodiazepine-5(11aH)-one]
- IC50 (786-O [1]): 0.1 nM
- IC50 (Caki-1 [2]): 0.06 nM
- IC50 (MCF-7 [3]): 0.2 nM
- IC50 (TF1a): 0.07 nM
- IC50 (786-O [4]): 0.85 nM
- IC50 (BxPC-3): 3 nM
- IC50 (Caki-1 [5]): 0.4 nM
- IC50 (HEL): 0.06 nM
- IC50 (HL-60): 0.1 nM
- IC50 (MCF-7 [6]): 7 nM

SMILES: COc1cc2c(cc1OCCCOc1cc3c(cc1OC)C(=O)N1C=C(c4cccc(N)c4)C[C@H]1C=N3)N=C[C@@H]1CC(C)=CN1C2=O [Compound 18, (S)-2-(3-aminophenyl)-7-methoxy-8-(3-((S)-7-methoxy-2-methyl-5-oxo-5,11a-dihydro-1H-pyrrolo[2,1-c][1,4]benzodiazepine-8-yloxy)propoxy)-1H-pyrrolo[2,1-c][1,4]benzodiazepine-5(11aH)-one]
- IC50 (786-O [1]): 1 nM
- IC50 (Caki-1 [2]): 0.6 nM
- IC50 (MCF-7 [3]): 2 nM
- IC50 (TF1a): 0.7 nM

SMILES: CC=CC1=CN2C(=O)c3cc(OC)c(OCCCCCOc4cc5c(cc4OC)C(=O)N4C=C(c6cccc(N)c6)C[C@H]4C=N5)cc3N=C[C@@H]2C1 [Compound 15, (S)-2-(3-aminophenyl)-8-(5-((S)-2-propenyl-7-methoxy-5-oxo-5,11a-dihydro-1H-pyrrolo[2,1-c][1,4]benzodiazepine-8-yloxy)pentyloxy)-7-methoxy-1H-pyrrolo[2,1-c][1,4]benzodiazepine-5(11aH)-one]
- IC50 (MCF-7 [3]): 0.03 nM
